37 compounds from a melting point compilation (Tetko et al.; mined from patent text by program, amines drawn as free bases though some values may be those of a salt) can be followed below.

Usually melting point stands for the temperature, or range, at which the solid turns liquid. In turn, `CCc1nc2c(N)nc3ccccc3c2n1CCCCNS(C)(=O)=O` returned a melting point of 198 to 200 °C.

Consider `O=CNc1ccccc1C(=O)Nc1nnn[nH]1`, for which the melting point fell in the range of 247 to 248 °C.

Turning to `Cc1cnc(C(=O)NCCO[N+](=O)[O-])s1`, the melting point is 110 to 112 °C.

The compound `CCCN1Cc2cc(Oc3cccc(NCc4c(C)cc(C)cc4C)c3)ccc2N=C1N` showed a melting point of 238 °C.

On to `Cc1c(CO)c2cnnc(OCc3ccc(F)cc3)c2n1Cc1ccccc1`, for which the melting point was in the range of 122 to 124 °C.

`COc1cc(N)c(I)cc1C(=O)O` returned a melting point of 181 °C.

The compound `C=C1CCCCCCC(C(=O)OCC)NC1=O` (configuration not stated) returned a melting point of 91 to 92 °C.

The compound `CC(C)(C)c1ccc(OCC(O)CN2CCC3(CC2)CSC2=C(O3)c3cc(Br)ccc3C(=O)C2=O)cc1` (configuration not stated) showed a melting point of 150 to 152 °C.

In the case of `CCOC(=O)c1c(Cl)c2cccnc2[nH]c1=O`, the melting point amounted to 172 °C.

As to `NC(=O)c1sc2nc(N3CCC(NCC(O)c4ccc5c(c4)OCO5)CC3)cc(C(F)(F)F)c2c1N` (configuration not stated), the melting point lay within 232 to 234 °C.

`CCNc1ccc2c(c1)CNC2` returned a melting point of 69 to 71 °C.

`O=C(CP(=O)(O)O)NC1CCCCC1` displayed a melting point of 180 to 183 °C.

As to `Cc1ccc(Cl)cc1N1CN(Cc2ccccc2)CN(Cc2ccccc2)C1=S`, the melting point lay within 202 to 203 °C.

As for `CCOc1cc(C(=O)O)cc(N)c1Cc1ccccc1`, the melting point is 165 to 167 °C.

In the case of `CCOC(=O)c1c[nH]c2c(F)c(C(C)=O)c(F)cc2c1=O`, the melting point was in the range of 267 to 270 °C.

The compound `CCOC(=O)c1c2c(nc3ccccc13)CCN(C(=O)OCC)CC2` displayed a melting point of 94 °C.

`CCCCCCS(=O)(=O)Cc1ccc(C(C)(C)NC(=O)OC)cc1`: the melting point lay in the range of 104 to 105 °C.

As to `COc1ccccc1N(CCN1CCC(C(=O)c2ccc(F)cc2)CC1)C(=O)c1ccc(C#N)cc1`, the melting point was in the range of 155 to 158 °C.

As for `CC(=O)c1cccc2cc3c(C(C)=O)cccc3cc12`, the melting point is 185 to 205 °C.

In the case of `CS(=O)(=O)c1ccc(-c2[nH]c3ccc(Cl)cc3c2-c2ccc(S(C)(=O)=O)cc2)cc1`, the melting point fell in the range of 173 to 175 °C.

Take `CNC(=O)ON=C1SCCN(C(=O)NC)C1=O`: the melting point was in the range of 187 to 189 °C.

As to `COc1ccccc1OCCCCCOc1ccc(C(=N)N)cc1`, the melting point was in the range of 96 to 98 °C.

In turn, `O=C(Nc1ccccc1-c1ccc(Cl)cc1F)c1cccnc1Cl` displayed a melting point of 124 to 126 °C.

In turn, `CC(Cn1ccc(-c2ccccc2)n1)C(=O)N(C)C` (configuration not stated) registered a melting point of 68 to 71 °C.

`CCOc1nn(Cc2ccc(OCc3cn4c(Cl)cccc4n3)cc2)cc1CCC(=O)O`: the melting point lay within 153 to 154 °C.

As for `Nc1ccc(CN2CCN(c3ccccc3)CC2)cc1`, the melting point came out at 105 °C.

For the compound `Cc1cnc(N)c(=O)n1C`, the melting point lay in the range of 217 to 219 °C.

Compound `COC(=O)c1nc2cccc(Cl)c2c(O)c1C(=O)OC` gave a melting point of 174 to 176 °C.

The compound `O=C(CCCN1CCC(NC(=O)c2ccccc2)CC1)c1ccc(Cl)cc1` showed a melting point of 243 to 244 °C.

`O=C(C(=O)c1cccc(Br)c1)c1ccncc1` came in with a melting point of 88 to 90 °C.

For the compound `CC(C)N(CCC1(c2ccccn2)CCC(=O)NC1=O)C(C)C` (configuration not stated), the melting point lay in the range of 101 to 102 °C.

Compound `c1ccc(OCCSCc2nnc(-c3ccc(OCCN4CCCCC4)cc3)o2)cc1` yielded a melting point of 70 °C.

Turning to `CCOCCc1c(-c2ccccc2)n2nnnc2n2ncnc12`, the melting point was found to be 114 °C.

With `CCOc1ccc(CCN(C(=O)O)C(=O)[C@H](CCSC)NC(C)=O)cc1OCC`, the melting point fell in the range of 85 to 90 °C.

Consider `O=Cc1ccc(OCc2csc(-c3ccccc3)n2)cc1`, for which the melting point is 86 to 90 °C.

As for `FC(F)(F)c1cccc(C2=CCNc3ccnn32)c1`, the melting point was in the range of 61 to 64 °C.

Compound `CCOC(=O)c1c(N2CCN(C(=O)c3cccs3)CC2)c2cnccc2n(Cc2cccc(F)c2)c1=O` came in with a melting point of 135 °C.
